Common to all, as to type: cell-based
Test [1] deals with Escherichia coli. In words: MIC against a single isolate (Example 26). The following applies: single isolate, read-out: E. coli MIC. How it is done:
(§1) Bacterial strains evaluated in this study include Escherichia coli, Klebsiella spp, Serratia marcescens, Proteus mirabilis/vulgaris, Citrobacter spp, Providencia spp, Morganella morganii, Pseudomonas aeruginosa, Staphylococcus aureus (MRSA only), and Enterococcus faecalis. Nu-8 test solutions are adjusted to pH 3.5 with citric acid, and MIC is evaluated per the CLSI methods in Mueller-Hinton broth supplemented accordingly to facilitate growth of specific strains.
(§2) MIC was determined as per Example 9 using LAI-101, LAI-102, Nu-10, LAI-105, LAI-106, Nu-3, and Nu-8 against a single isolate of Escherichia coli. Pseudomonas aeruginosa, Staphylococcus aureus (MRSA only), and Candida Albicans. For all microbe species, the LAI-101, LAI-102, Nu-10, LAI-105, and LAI-106 all perform at least as well as, and in many experiments better than, Nu-8 and Nu-3, which are both already quite active compounds.

Test [2] relates to Staphylococcus aureus (MRSA only). The test is described as follows: MIC against a single isolate (Example 26). The following applies: single isolate, read-out: S. aureus MIC. The method, then: as §1, §2
The subject of test [3] is Pseudomonas aeruginosa. The test is described as follows: MIC against a single isolate (Example 26). The following applies: single isolate, read-out: P. aeruginosa MIC. How it is done: as §1, §2
The test system of test [4] is Candida Albicans. The test is described as follows: MIC against a single isolate (Example 26). The following applies: single isolate, read-out: C. albicans MIC. The method, then: as §1, §2
For test [5], the system named is E. coli ATCC 25922. The test is described as follows: Bacterial cytological profiling (Example 6), E. coli.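 For effect on cell envelope: tested at 1 0.5 and 0.25 times MIC.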 The method, then:
This bacterial cytological profiling (BCP) study uses methods and materials described previously by Nonejuie, P., Burkart, M., Poglianoa, K., Pogiano, J. (2013). Bacterial cytological profiling rapidly identifies the cellular pathways targeted by antibacterial molecules. Proc. Natl. Acad. Sci. U.S.A. 110(40):16169-16174. doi: 10.1073/pnas.1311066110.
Wild type strains of E. coli ATCC 25922 or P. aeruginosa K2732 are grown in rich media (unbuffered 2× Lysogeny broth [LB]) at 30 C to an OD600˜0.4. These cultures are then split and each sample treated with the appropriate concentration of Nu-8 in unbuffered or buffered LB (final mixture OD600˜0.1). Cells exposed without Nu-8 are buffered to pH 4 with phosphoric acid.
The BCP is performed in LB media buffered to pH 4. The minimum inhibitory concentration (MIC) is measured for Nu-3, Nu-4, Nu-5, and Nu-8 against each bacterial strain. As one of ordinary skill in the art understands, minimum inhibitory concentrations are the lowest concentration of an antimicrobial that will inhibit the visible growth of a microorganism after overnight incubation. […] Cellular viability is assayed at three time points (5 minutes and 4 and 24 h following the onset of treatment).
For imaging E. coli, treated cells are stained with 1 μg/Ml FM4-64, 2 μg/mL DAPI, and 0.5 μM SYTOXGreen (Molecular Probes/Invitrogen). P. aeruginosa samples are stained 0.5 μM SYTOX Green, 28 μg/mL DAPI, and 4.5 μg/mL FM 4-64. Cells are transferred to an agarose pad (20% LB, 1% agarose) for imaging as described in Pogliano, J., Osborne, N., Sharp, M. D., Abanes-De Mello, A., Perez, A., Sun, Y.-L. and Pogliano, K. (1999), A vital stain for studying membrane dynamics in bacteria: a novel mechanism controlling septation during Bacillus subtilis sporulation. Molecular Microbiology, 31: 1149-1159. doi:10.1046/j.1365-2958.1999.01255.x.

Test [6] deals with Streptococcus pneumoniae (PRSP). The test is described as follows: MIC at pH 3.5 (CLSI, Mueller-Hinton broth).
The test system of test [7] is E. coli. In words: MIC broth microdilution (CLSI) at incremental pH, E. coli. The following applies: Escherichia coli. The method, then:
MIC testing is conducted using the broth (Mueller Hinton Broth) microdilution procedures relevant to each organism group as established by the Clinical and Laboratory Standards Institute (CLSI; 3-7). MIC plates are prepared in accordance with CLSI (3-7). To prepare the test plates, automated liquid handlers are used to conduct serial dilutions and liquid transfers. Automated liquid handlers utilized in this study include the Multidrop 384 (Labsystems, Helsinki, Finland) and the Biomek 2000 (Beckman Coulter, Fullerton CA). The solution is diluted to desired pH using 1 M Citric Acid or 1 M NaOH buffer. A standardized inoculum of each test organism is prepared per CLSI methods (3, 5-7) to equal a 0.5 McFarland standard in the appropriate media followed by an additional 1:20 dilution (1:10 for anaerobes).
The plates are then inoculated with 10 μL of the diluted 0.5 McFarland suspension using the Biomek 2000 from low to high drug concentration, resulting in a final concentration of approximately 5×10^5 CFU/mL per well. An un-inoculated plate is incubated for the purpose of assessing solubility of the drug in the test media. The plates are stacked 3 to 4 high, covered with a sterile lid on the top plate, and incubated for 18 to 24 hours according to CLSI. The MIC is recorded as the lowest concentration of respective compound that inhibited visible growth of the organism.

In test [8] the test system is bacterial strains. The test is described as follows: MIC at pH 3.5 in human and mouse urine. An excerpt: Bacterial strains evaluated in this study include Escherichia coli, Klebsiella spp, Serratia marcescens, Proteus mirabilis/vulgaris, Citrobacter spp, Providencia spp, Morganella morganii, Pseudomonas aeruginosa, Staphylococcus aureus (MRSA only), and Enterococcus faecalis. […]

As a reminder, the MIC is the lowest concentration that inhibits growth of the organism.

For `CCCCOP(=O)(O)OC[C@H]1O[C@@H](n2ccc(N)nc2=O)C[C@@H]1OP(=O)(O)OCCCC` [Nu-8, sodium ((2R,3S,5R)-5-(4-amino-2-oxopyrimidin-1(2H)-yl)-3-((butoxyoxidophosphor-yl)oxy)tetrahydrofuran-2-yl)methyl butyl phosphate], the MIC in test [1] was greater than 50 mg/mL; in test [2], greater than 50 mg/mL; in test [3], greater than 50 mg/mL; in test [4], greater than 50 mg/mL; in test [6] it was 9.38 to 18.8 mg/mL; in test [7] (pH 1), 9.8 mg/mL. The MIC in test [7] (pH 3) is 37.5 mg/mL; in test [7] (pH 4) it was 75 mg/mL; in test [7] (pH 5) it was greater than 75 mg/mL; in test [7] (pH 7) it was greater than 75 mg/mL. Also, the “effect on cell envelope” value in test [5] (BCP) is given as “affect the cell envelope”. Also, the cell membrane permeability result in test [5] (buffered pH 4 or unbuffered LB) is on record as “increase cell membrane permeability”. Also, the DNA condensation entry in test [5] (higher treatment concentrations, buffered pH 4) is given as “causes DNA condensation”. For the same molecule, in test [8], the “MICs in human and mouse urine” value is reported as “comparable to those of Nu-8 in Mueller Hinton broth”.

Values taken from patent US12054509B2, “Antimicrobial compounds, compositions, and uses thereof” (Lakewood Amedex, Inc., priority 2017, dated 2024).
